From ChEMBL document CHEMBL1201862, “PubChem BioAssay data set” (2004)
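Tested at 5 concentrations; 48 h exposure; 96-well plates; endpoints linearly interpolated, else capped at highest concentration. The concentration for 50% growth inhibition is given as GI50.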 Calls of active or inactive are those of the source. Cut-off read from the data, not from the text of the source: active = GI50 up to about 1.1 µM and inactive = higher.

Columns and labels:
Assay in all cases: NCI anticancer screen, dose series, 48 h
[1] = tested on: BT-549
[2] = tested on: DU-145
[3] = tested on: EKVX
[4] = tested on: HOP-92
[5] = tested on: Hs-578T
[6] = tested on: K562
[7] = tested on: KM12
[8] = tested on: MCF7
[9] = tested on: OVCAR-3
[10] = tested on: OVCAR-5
[11] = tested on: PC-3
[12] = tested on: SF-268
[13] = tested on: SK-MEL-5
[14] = tested on: SK-OV-3
[15] = tested on: SNB-19
[16] = tested on: SW-620
[17] = tested on: TK-10
[18] = tested on: UACC-257
[19] = tested on: UACC-62
[20] = tested on: NCI-H226

Measured: GI50

O=c1oc2ccc(Cl)cc2cc1C1=CSC2=NCCN12
inactive: [1] 19.7 µM | [2] 19.3 µM | [3] 20.6 µM | [4] 22.1 µM | [5] 31.7 µM | [6] 18.2 µM | [7] 19.8 µM | [8] 19.6 µM | [9] 18.4 µM | [10] 50.5 µM | [11] 21.7 µM | [12] 17.8 µM | [13] 19.1 µM | [14] 38.1 µM | [15] 25 µM | [16] 24.6 µM | [17] 27.1 µM | [18] 37.7 µM | [19] 19.5 µM

CC(SC(=S)N1CCOCC1)C(=O)Nc1nnc(-c2ccccc2)o1 (stereo unspecified)
inactive: [1] > 100 µM | [2] > 100 µM | [3] > 100 µM | [5] > 100 µM | [6] 55.1 µM | [7] > 100 µM | [8] 60.1 µM | [20] > 100 µM | [9] > 100 µM | [10] > 100 µM | [11] 57.1 µM | [13] 46.7 µM | [14] > 100 µM | [15] > 100 µM | [16] 51.6 µM | [17] > 100 µM | [18] > 100 µM

C=CCC1(OC(C)=O)C2OC(=O)C1(O)OCC2O (stereo unspecified)
inactive: [1] > 100 µM | [2] > 100 µM | [3] > 100 µM | [5] > 100 µM | [6] > 100 µM | [7] > 100 µM | [8] > 100 µM | [20] > 100 µM | [9] > 100 µM | [10] > 100 µM | [11] > 100 µM | [12] > 100 µM | [13] > 100 µM | [14] > 100 µM | [15] > 100 µM | [16] > 100 µM | [17] > 70.8 µM | [18] > 100 µM | [19] > 59.3 µM

COC1CCON1C(=O)c1ccccc1 (stereo unspecified)
inactive: [1] > 10 µM | [2] > 10 µM | [3] > 10 µM | [5] > 10 µM | [6] > 10 µM | [8] > 10 µM | [20] > 10 µM | [9] > 10 µM | [10] > 10 µM | [11] > 10 µM | [12] > 10 µM | [13] > 10 µM | [14] > 10 µM | [15] > 10 µM | [16] > 10 µM | [17] > 10 µM | [18] > 10 µM

COC12C=CC(CC1)C1C(=O)c3c(C)c(C)n(C)c3C(=O)C12 (stereo unspecified)
inactive: [1] > 100 µM | [2] > 100 µM | [3] > 100 µM | [5] 70.3 µM | [6] > 100 µM | [7] 91.4 µM | [8] > 100 µM | [20] 25.9 µM | [9] > 100 µM | [10] > 100 µM | [11] > 100 µM | [12] > 100 µM | [13] 19.6 µM | [14] > 100 µM | [15] > 100 µM | [16] > 100 µM | [17] > 100 µM | [18] 35.6 µM | [19] 40.9 µM

CCOC(=O)CNC(=O)CNC(=O)CNC(=O)CNNc1c(OCc2ccccc2)c(=O)c1=O
inactive: [1] > 100 µM | [2] > 100 µM | [3] > 100 µM | [5] > 100 µM | [6] > 100 µM | [7] > 100 µM | [8] > 100 µM | [20] > 100 µM | [9] > 100 µM | [10] > 100 µM | [11] > 100 µM | [12] > 100 µM | [13] > 100 µM | [14] > 100 µM | [15] > 100 µM | [16] > 100 µM | [17] > 100 µM | [18] > 100 µM | [19] > 100 µM

N#Cc1nn(C(N)=O)c(N)c1C#N
inactive: [1] > 100 µM | [2] > 100 µM | [3] > 100 µM | [5] > 100 µM | [6] > 100 µM | [7] > 100 µM | [8] > 100 µM | [20] > 100 µM | [9] > 100 µM | [10] > 100 µM | [11] > 100 µM | [12] > 100 µM | [13] > 100 µM | [14] > 100 µM | [15] > 100 µM | [16] > 100 µM | [17] > 100 µM | [18] > 100 µM | [19] > 100 µM

CC(C)(O)[C@@H]1CC[C@](C)(C2[C@@H](O)C[C@@]3(C)C4C[C@H](OC5OCC(O)C(O)C5O)[C@H]5C(C)(C)[C@@H](OC6OCC(O)C(O)C6OC6OCC(O)C(O)C6O)CC[C@@]56C[C@@]46CC[C@]23C)O1 (stereo partly specified)
inactive: [1] > 100 µM | [2] > 100 µM | [3] > 100 µM | [5] > 100 µM | [6] > 100 µM | [7] > 100 µM | [8] > 100 µM | [20] > 100 µM | [9] > 100 µM | [10] > 100 µM | [11] > 100 µM | [12] > 100 µM | [13] > 100 µM | [14] > 100 µM | [15] > 100 µM | [16] > 100 µM | [19] > 100 µM
